# Measured values published in ChEMBL document CHEMBL1130477, “Synthesis and structure-activity relationships of some novel oxetane carbapenems” (1997).
# How the values were obtained:
# [1] = system: Enterococcus faecium; experiment: In vitro antibacterial activity against Enterococcus faecium strain GC 1182, expressed as MIC(minimum inhibitory concentration); assay type: functional
# [2] = target: T1, Dipeptidase 1 (Sus scrofa) (UniProt P22412); experiment: (§1) Stability towards hog kidney dehydropeptidase (DHP) expressed as relative hydrolysis to imipenem
# T1 sequence (whole entry): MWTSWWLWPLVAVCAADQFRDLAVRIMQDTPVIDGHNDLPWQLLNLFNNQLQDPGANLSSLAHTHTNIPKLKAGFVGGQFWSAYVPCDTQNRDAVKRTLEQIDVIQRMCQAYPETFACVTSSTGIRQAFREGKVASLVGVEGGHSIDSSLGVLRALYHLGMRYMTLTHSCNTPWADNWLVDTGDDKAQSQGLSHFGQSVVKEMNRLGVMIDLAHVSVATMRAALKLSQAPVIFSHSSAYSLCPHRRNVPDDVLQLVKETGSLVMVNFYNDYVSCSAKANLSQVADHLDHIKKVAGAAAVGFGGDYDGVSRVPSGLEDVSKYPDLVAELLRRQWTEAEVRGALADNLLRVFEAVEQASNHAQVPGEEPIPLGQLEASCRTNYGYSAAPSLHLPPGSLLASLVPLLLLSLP
# [3] = system: Escherichia coli; experiment: In vitro antibacterial activity against Escherichia coli strain GC 1792, expressed as MIC(minimum inhibitory concentration); assay type: functional
# [4] = system: Morganella morganii; experiment: In vitro antibacterial activity against Morganella morganii strain GC 2213, expressed as MIC(minimum inhibitory concentration); assay type: functional
# [5] = system: Staphylococcus aureus; experiment: In vitro antibacterial activity against Staphylococcus aureus strain ATCC 29213, expressed as MIC(minimum inhibitory concentration); assay type: functional
# [6] = system: Pseudomonas aeruginosa; experiment: In vitro antibacterial activity against Pseudomonas aeruginosa strain ATCC 27853, expressed as MIC(minimum inhibitory concentration); assay type: functional
# [7] = system: Stenotrophomonas maltophilia; experiment: In vitro antibacterial activity against Xanthomonas maltophilia strain GC 562, expressed as MIC(minimum inhibitory concentration); assay type: functional
# [8] = system: Citrobacter freundii; experiment: In vitro antibacterial activity against Citrobacter freundii strain GC 2211, expressed as MIC(minimum inhibitory concentration); assay type: functional
# [9] = system: Acinetobacter calcoaceticus; experiment: In vitro antibacterial activity against Acinetobacter calcoaceticus aceticus strain GC 756, expressed as MIC(minimum inhibitory concentration); assay type: functional
# [10] = system: Enterobacter cloacae; experiment: In vitro antibacterial activity against Enterobacter cloacae strain GC 2209, expressed as MIC(minimum inhibitory concentration); assay type: functional
# [11] = system: Pseudomonas aeruginosa; experiment: In vitro antibacterial activity against Pseudomonas aeruginosa strain GC 1544, expressed as MIC(minimum inhibitory concentration); assay type: functional
# [12] = system: Escherichia coli; experiment: In vitro antibacterial activity against Escherichia coli strain ATCC 25922, expressed as MIC(minimum inhibitory concentration); assay type: functional
# [13] = system: Escherichia coli; experiment: In vitro antibacterial activity against Escherichia coli strain GC 2205, expressed as MIC(minimum inhibitory concentration); assay type: functional
# [14] = system: Enterococcus faecalis; experiment: In vitro antibacterial activity against Enterococcus faecalis strain GC 842, expressed as MIC(minimum inhibitory concentration); assay type: functional
# [15] = system: Staphylococcus aureus; experiment: In vitro antibacterial activity against Staphylococcus aureus strain GC 2220, expressed as MIC(minimum inhibitory concentration); assay type: functional
# [16] = target: T1, Dipeptidase 1 (Sus scrofa); experiment: as §1; assay type: functional, tissue-based
Structure (SMILES),MIC [1],Relative hydrolysis [2],MIC [3],MIC [4],MIC [5],MIC [6],MIC [7],MIC [8],MIC [9],MIC [10],MIC [11],MIC [12],MIC [13],MIC [14],MIC [15],Relative hydrolysis [16]
C[C@@H](O)[C@H]1C(=O)N2C(C(=O)O)=C(SCCNC=N)C[C@H]12 [IMIPENEM ANHYDROUS],128 µg/mL,100,0.12 µg/mL,2 µg/mL,≤ 0.06 µg/mL,2 µg/mL,> 128 µg/mL,0.5 µg/mL,0.5 µg/mL,≤ 0.06 µg/mL,16 µg/mL,0.12 µg/mL,0.12 µg/mL,1 µg/mL,1 µg/mL,
C[C@H]1C(S[C@H]2[C@@H](CN)O[C@@H]2CO)=C(C(=O)O)N2C(=O)[C@H]([C@@H](C)O)C12 (some centres not stated),> 128 µg/mL,,0.25 µg/mL,2 µg/mL,0.12 µg/mL,16 µg/mL,> 128 µg/mL,1 µg/mL,4 µg/mL,0.25 µg/mL,32 µg/mL,0.12 µg/mL,0.25 µg/mL,4 µg/mL,8 µg/mL,
COC(=O)[C@H]1O[C@H](CN)[C@H]1SC1=C(C(=O)O)N2C(=O)[C@H]([C@@H](C)O)[C@H]2[C@H]1C,> 128 µg/mL,< 1,0.5 µg/mL,16 µg/mL,1 µg/mL,128 µg/mL,> 128 µg/mL,1 µg/mL,16 µg/mL,0.25 µg/mL,> 128 µg/mL,0.25 µg/mL,0.5 µg/mL,32 µg/mL,32 µg/mL,
COC(=O)[C@H]1O[C@H](COS(=O)(=O)c2ccc(C)cc2)[C@H]1SC1=C(C(=O)[O-])N2C(=O)[C@H]([C@@H](C)O)[C@H]2[C@H]1C.[Na+],> 128 µg/mL,< 1,> 128 µg/mL,> 128 µg/mL,4 µg/mL,> 128 µg/mL,> 128 µg/mL,> 128 µg/mL,> 128 µg/mL,> 128 µg/mL,> 128 µg/mL,> 128 µg/mL,2 µg/mL,64 µg/mL,64 µg/mL,
C[C@H]1C(S[C@@H]2[C@@H](C)O[C@@H]2CN)=C(C(=O)[O-])N2C(=O)[C@H]([C@@H](C)O)C12.[Na+] (some centres not stated),> 128 µg/mL,,0.12 µg/mL,4 µg/mL,0.12 µg/mL,64 µg/mL,> 128 µg/mL,1 µg/mL,16 µg/mL,0.5 µg/mL,128 µg/mL,0.12 µg/mL,0.25 µg/mL,4 µg/mL,8 µg/mL,
COC(=O)[C@H]1O[C@H](CO)[C@H]1SC1=C(C(=O)[O-])N2C(=O)[C@H]([C@@H](C)O)[C@H]2[C@H]1C.[Na+],> 128 µg/mL,< 1,1 µg/mL,4 µg/mL,2 µg/mL,> 128 µg/mL,> 128 µg/mL,16 µg/mL,32 µg/mL,4 µg/mL,> 128 µg/mL,0.5 µg/mL,0.25 µg/mL,16 µg/mL,32 µg/mL,

# Now from value to compound:
MIC [1],Relative hydrolysis [2],MIC [3],MIC [4],MIC [5],MIC [6],MIC [7],MIC [8],MIC [9],MIC [10],MIC [11],MIC [12],MIC [13],MIC [14],MIC [15],Relative hydrolysis [16],Structure (SMILES)
> 64 µg/mL,,1 µg/mL,4 µg/mL,4 µg/mL,> 64 µg/mL,> 64 µg/mL,8 µg/mL,32 µg/mL,2 µg/mL,> 64 µg/mL,0.5 µg/mL,0.5 µg/mL,32 µg/mL,> 64 µg/mL,,C[C@@H](O)[C@H]1C(=O)N2C(C(=O)[O-])=C(S[C@H]3[C@@H](C(=O)N(C)C)O[C@@H]3CO)[C@H](C)[C@H]12.[Na+]
64 µg/mL,,≤ 0.06 µg/mL,0.5 µg/mL,≤ 0.06 µg/mL,4 µg/mL,> 128 µg/mL,0.12 µg/mL,2 µg/mL,< 0.06 µg/mL,16 µg/mL,≤ 0.06 µg/mL,≤ 0.06 µg/mL,1 µg/mL,2 µg/mL,8.5,"CC1C(S[C@@H]2CCO[C@@H]2CN)=C(C(=O)O)N2C(=O)[C@H]([C@@H](C)O)[C@@H]12 (single isomer, unassigned)"
